For series [1], the target named is T1, D1^high (Rattus norvegicus, UniProt P18901).
T1 construct: membrane-containing homogenates of rat corpus striatum tissue; from tissue; host or cells: rat corpus striatum
The experiment in a line: Competitive radioreceptor binding, D1 high-affinity state, rat striatum [3H]SCH23390.

Series [2] has as its target T2, D1^low (Rattus norvegicus, UniProt P18901).
T2 construct: membrane-containing homogenates of rat corpus striatum tissue; from tissue; host or cells: rat corpus striatum
As to the kind of experiment: Competitive radioreceptor binding, D1 low-affinity state, rat striatum [3H]SCH23390.

The target of series [3] is T3, D2^high (Rattus norvegicus, UniProt P61169).
T3 construct: membrane-containing homogenates of rat corpus striatum tissue; from tissue; host or cells: rat corpus striatum
As to the kind of experiment: Competitive radioreceptor binding, D2 high-affinity state, rat striatum [3H]domperidone. The settings on record: for D2^high binding affinity (in words): comparison with analogue.

Series [4] deals with T4, D2^low (Rattus norvegicus, UniProt P61169).
T4 construct: membrane-containing homogenates of rat corpus striatum tissue; from tissue; host or cells: rat corpus striatum
The experiment in a line: Competitive radioreceptor binding, D2 low-affinity state, rat striatum [3H]domperidone.

Series [5] has as its target T5, human D3 clone (Homo sapiens, UniProt P35462).
T5 construct: expressed in transfected cells
The experiment in a line: Competitive binding, human D3 clone [3H]domperidone. The settings on record: for Ki: human D3 clone, [3H]domperidone.

The target in series [6] is T6, D3^high (Homo sapiens, UniProt P35462).
T6 construct: expressed in transfected cells
The experiment in a line: D3 high-affinity state binding (footnote g). The settings on record: footnote g of Table 1.

Series [7] has as its target T7, D3 rat clone (Rattus norvegicus, UniProt P19020).
T7 construct: expressed in transfected cells
The experiment in a line: Competitive binding, D3 rat clone [3H]domperidone.

Series [8] deals with T8, D1 human clone (D1^low) (Homo sapiens, UniProt P21728).
T8 construct: expressed in transfected cells
As to the kind of experiment: Competitive binding, D1 human clone [3H]SCH23390.

The mark [9] stands for this setting: rat striatum, [3H]domperidone, read-out: Ki D2^high.
Setting [10] is: rat striatum, [3H]SCH23390, read-out: Ki D1^low (class).

Broadly, the melting point is the temperature of the solid-liquid transition. What is called Ki is a measure of affinity in units of concentration, obtained from inhibition or displacement.

Where a name gives a salt, the structure may show the parent alone. Read-outs that look alike come from different tables or passages of the source.

T5 sequence (P35462 whole entry): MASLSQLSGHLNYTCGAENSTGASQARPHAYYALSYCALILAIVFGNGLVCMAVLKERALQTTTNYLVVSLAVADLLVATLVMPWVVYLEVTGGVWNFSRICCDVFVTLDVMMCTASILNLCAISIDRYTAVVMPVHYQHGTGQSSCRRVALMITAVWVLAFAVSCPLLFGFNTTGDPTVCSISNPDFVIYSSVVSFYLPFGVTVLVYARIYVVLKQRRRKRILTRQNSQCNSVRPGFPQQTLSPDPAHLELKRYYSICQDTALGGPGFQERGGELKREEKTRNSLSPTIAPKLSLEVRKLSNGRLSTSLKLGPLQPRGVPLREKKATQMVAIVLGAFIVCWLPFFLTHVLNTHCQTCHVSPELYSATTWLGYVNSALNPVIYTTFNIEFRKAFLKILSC
T2 sequence (P18901 whole entry): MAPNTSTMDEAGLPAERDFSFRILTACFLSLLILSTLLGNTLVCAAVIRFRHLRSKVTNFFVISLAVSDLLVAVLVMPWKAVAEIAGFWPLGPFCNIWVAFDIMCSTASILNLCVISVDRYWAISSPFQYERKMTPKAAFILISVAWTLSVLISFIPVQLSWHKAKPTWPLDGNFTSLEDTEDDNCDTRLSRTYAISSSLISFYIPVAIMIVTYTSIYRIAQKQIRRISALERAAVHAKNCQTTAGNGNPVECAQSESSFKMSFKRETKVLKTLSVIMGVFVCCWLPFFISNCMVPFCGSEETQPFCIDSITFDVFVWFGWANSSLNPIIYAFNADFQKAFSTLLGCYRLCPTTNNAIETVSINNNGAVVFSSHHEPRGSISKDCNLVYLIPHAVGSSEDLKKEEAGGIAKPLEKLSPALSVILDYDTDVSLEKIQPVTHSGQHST
T1 sequence (P18901 whole entry): as above
T7 sequence (P19020 whole entry): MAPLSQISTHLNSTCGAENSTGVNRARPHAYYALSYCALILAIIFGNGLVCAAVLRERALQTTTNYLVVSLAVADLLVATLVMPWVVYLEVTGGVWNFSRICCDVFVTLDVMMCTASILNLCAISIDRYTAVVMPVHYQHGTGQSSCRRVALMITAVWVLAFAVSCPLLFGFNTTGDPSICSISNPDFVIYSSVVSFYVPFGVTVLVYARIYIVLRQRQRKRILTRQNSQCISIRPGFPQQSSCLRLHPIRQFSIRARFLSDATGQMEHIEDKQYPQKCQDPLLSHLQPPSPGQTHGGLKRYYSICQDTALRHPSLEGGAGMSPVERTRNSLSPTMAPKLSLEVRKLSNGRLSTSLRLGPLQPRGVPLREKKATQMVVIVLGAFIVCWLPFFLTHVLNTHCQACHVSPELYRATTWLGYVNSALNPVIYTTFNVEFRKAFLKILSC
T3 sequence (P61169 whole entry): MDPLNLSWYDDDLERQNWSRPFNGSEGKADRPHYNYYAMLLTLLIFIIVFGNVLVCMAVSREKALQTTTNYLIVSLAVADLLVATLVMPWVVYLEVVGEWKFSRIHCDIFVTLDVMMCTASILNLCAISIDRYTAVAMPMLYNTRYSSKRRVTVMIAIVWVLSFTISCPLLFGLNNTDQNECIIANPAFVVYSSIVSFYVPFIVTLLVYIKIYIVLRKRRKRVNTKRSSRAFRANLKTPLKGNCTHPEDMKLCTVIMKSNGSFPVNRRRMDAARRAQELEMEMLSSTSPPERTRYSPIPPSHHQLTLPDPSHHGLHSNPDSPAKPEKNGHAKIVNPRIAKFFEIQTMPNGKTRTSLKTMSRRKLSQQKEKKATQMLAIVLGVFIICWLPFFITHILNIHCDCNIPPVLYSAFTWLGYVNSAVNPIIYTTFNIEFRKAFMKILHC
T4 sequence (P61169 whole entry): as above
T8 sequence (P21728 whole entry): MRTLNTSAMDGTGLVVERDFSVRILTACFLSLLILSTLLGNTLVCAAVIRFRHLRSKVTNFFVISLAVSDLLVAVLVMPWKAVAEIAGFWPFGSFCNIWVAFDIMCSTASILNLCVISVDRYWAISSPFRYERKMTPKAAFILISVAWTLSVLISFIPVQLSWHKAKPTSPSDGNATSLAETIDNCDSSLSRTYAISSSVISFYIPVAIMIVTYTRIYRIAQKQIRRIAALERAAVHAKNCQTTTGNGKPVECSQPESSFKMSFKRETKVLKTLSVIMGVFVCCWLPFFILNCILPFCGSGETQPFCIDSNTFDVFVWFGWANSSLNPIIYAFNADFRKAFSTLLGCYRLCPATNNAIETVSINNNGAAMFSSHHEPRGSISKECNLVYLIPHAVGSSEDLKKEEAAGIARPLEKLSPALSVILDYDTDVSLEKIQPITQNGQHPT
T6 sequence (P35462 whole entry): as the sequence (P35462 whole entry) above

In the case of `CCCN1CCc2cc(OCCF)cc3c2[C@H]1Cc1ccc(O)c(O)c1-3` (as salt: HCl) [8b, R(−)-2-Fluoroethyoxy-NPA], the melting point is 203 to 205 °C (dec.).

On to `CCN1CCc2cc(OCCCF)cc3c2[C@H]1Cc1ccc(O)c(O)c1-3` (as salt: HCl) [8c, R(−)-2-(3-Fluoropropanoxy) 10,11-dihydroxy-N-ethylnoraporphine], for which the melting point is 174 to 176 °C (dec.).

In the case of `CCN1CCc2cc(OCCF)cc3c2[C@H]1Cc1ccc(O)c(O)c1-3` (as salt: HCl) [8d, R(−)-2-fluoroethoxy-N-ethylnorapomorphine], the melting point fell in the range of 163 to 165 °C.

As for `CCN1CCc2cc(OCCI)cc3c2[C@H]1Cc1ccc(O)c(O)c1-3` (as salt: HCl) [8e, R(−)-2-iodoethoxy-N-ethylnorapomorphine], the melting point is 155 to 163 °C (dec.).

In the case of `CN1CCc2cc(OCCCF)cc3c2[C@H]1Cc1ccc(O)c(O)c1-3` (as salt: HCl) [8f, R(−)-2-(3-Fluoropropanoxy) 10,11-dihydroxyaporphine], the melting point is 170 to 175 °C (dec.).

As for `CCN1CCc2cc(OCCCF)cc3c2[C@H]1Cc1cccc(O)c1-3` (as salt: HCl) [11c], the melting point is 156 to 158 °C (dec.).

As to `Oc1cccc2c1-c1cccc3c1[C@@H](C2)N(CCCF)CC3` (as salt: HCl) [compound 6, R(−)-11-Hydroxy-N-(3-fluoropropyl)noraporphine], the melting point was 195 to 197 °C (dec.).

As for `CN1CCc2cc(OCCF)cc3c2[C@H]1Cc1ccc(O)c(O)c1-3` (as salt: salt) [8g, R(−)-2-(2-Fluoroethoxy) 10,11-dihydroxyaporphine], the melting point is 236 to 238 °C (dec.).

As for `CCCN1CCc2cc(OC)cc3c2[C@H]1Cc1ccc(O)c(O)c1-3` [2b, 2-MeO-NPA, reference compound], the inhibitory constant (Ki) in series [1] is 8.1 ± 0.7 nM; in [2], greater than 2000 nM; in series [3] (setting [9]) it was 5.1 ± 1.3 nM; in [4], 805 ± 140 nM.

For the molecule `CCCN1CCc2cc(F)cc3c2[C@H]1Cc1ccc(O)c(O)c1-3` [2c, 2-F-NPA, reference compound], in [1], the “Ki D1^high” value is recorded as “No D1^high”. The Ki is greater than 2000 nM in [2] (setting [10]), 2.7 ± 1.3 nM in series [3] (setting [9]) and 1800 ± 340 nM in [4].

In series [5], `CCCN1CCc2cccc3c2[C@H]1Cc1cccc(O)c1-3` [3b, reference compound] returned a Ki of 1.7 ± 0.25 µM.

With `CCCN1CCc2cc(OCCCF)cc3c2[C@H]1Cc1ccc(O)c(O)c1-3` [8a, R(−)-2-(3-fluoropropanoxy)-NPA], the “Ki D1^high” value in series [1] was “No D1^high”. In addition, the Ki in series [5] was 0.43 ± 0.064 µM; in [2], greater than 2000 nM; in series [3] it was 27 nM; in series [3] (setting [9]), 28 ± 15 nM; in [4], 3000 nM.

Consider `CCCN1CCc2cc(OCCF)cc3c2[C@H]1Cc1ccc(O)c(O)c1-3` [8b, R(−)-2-Fluoroethyoxy-NPA], for which the “Ki D1^high” value in series [1] is on record as “No D1^high”. For the same molecule, the inhibition constant (Ki) was 2.2 ± 0.33 µM in series [5], greater than 2000 nM in [2] (setting [10]), 3.7 nM in [3] (setting [9]) and 990 ± 35 nM in series [4].

Regarding `CCN1CCc2cc(OCCCF)cc3c2[C@H]1Cc1ccc(O)c(O)c1-3` [8c, R(−)-2-(3-Fluoropropanoxy) 10,11-dihydroxy-N-ethylnoraporphine], the “Ki D1^high” value in [1] was “No D1^high”. The Ki is greater than 2000 nM in series [2] (setting [10]), 6.1 ± 3 nM in series [3] (setting [9]) and 1600 ± 780 nM in series [4]. The “fold increase in D2^high affinity” value in [3] (in comparison to 8a) is recorded as roughly 4 fold.

For the molecule `CCN1CCc2cc(OCCF)cc3c2[C@H]1Cc1ccc(O)c(O)c1-3` [8d, R(−)-2-fluoroethoxy-N-ethylnorapomorphine], the “Ki D1^high” value in [1] is listed as “No D1^high”. Also, the results for the Ki in series [2] (setting [10]), in [3] (setting [9]) and in series [4] were greater than 2000 nM, 2.5 nM and 2400 ± 1500 nM, respectively. In addition, in series [3] (compared with 8c), the “fold improvement in D2^high binding affinity” value is “more than 2 fold”.

With `CCN1CCc2cc(OCCI)cc3c2[C@H]1Cc1ccc(O)c(O)c1-3` [8e, R(−)-2-iodoethoxy-N-ethylnorapomorphine], the “Ki D1^high” value in series [1] is reported as “No D1^high”. The inhibition constant Ki in series [5] (bound given in μM) was greater than 10 µM; in series [2] (setting [10]) it was greater than 2000 nM; in series [3], 5 ± 2.3 nM; in series [4], 770 ± 230 nM. The “D2^high binding affinity (in words)” value in [3] is listed as “slight drop”. In addition, the “selectivity for D2^high over D1, D3, and D2^low” value in series [3] (in words) is on record as “high selectivity”.

`CN1CCc2cc(OCCCF)cc3c2[C@H]1Cc1ccc(O)c(O)c1-3` [8f, R(−)-2-(3-Fluoropropanoxy) 10,11-dihydroxyaporphine]: the “D3^high affinity” value in series [6] was “did not show any D3^high affinity”. In addition, the “Ki D1^high” value in series [1] is “No D1^high”. For the same molecule, the Ki in [2] (setting [10]) was greater than 2000 nM; in [3] (setting [9]), 31 nM.

Take `CN1CCc2cc(OCCF)cc3c2[C@H]1Cc1ccc(O)c(O)c1-3` [8g, R(−)-2-(2-Fluoroethoxy) 10,11-dihydroxyaporphine]: in series [1], the “Ki D1^high” value was “No D1^high”. In addition, the “D3 affinity (in words)” value in [5] was “no detectable affinity”. Besides, the inhibition constant Ki in series [2] (setting [10]) is greater than 2000 nM; in series [4] it was 620 ± 260 nM.

As to `CCCN1CCc2cc(OCCCF)cc3c2[C@H]1Cc1cccc(O)c1-3` [11a], the “Ki D1^high” value in [1] is reported as “No D1^high”. Moreover, the inhibitory constant (Ki) in series [2] (setting [10]) is greater than 2000 nM; in series [7], 100 ± 14 nM.

As for `CCCN1CCc2cc(OCCF)cc3c2[C@H]1Cc1cccc(O)c1-3` [11b, R(−)-2-(2-fluoroethoxy)-11-hydroxy-N-n-propylnoraporphine], the “Ki D1^high” value in series [1] is on record as “No D1^high”. Also, the Ki is greater than 2000 nM in series [2], 410 ± 62 nM in series [7], 3.5 ± 2 nM in series [3] (setting [9]) and 56 ± 37 nM in series [4]. In addition, the “D2^high binding affinity (in words)” value in series [3] is “about the same”.

In the case of `CCN1CCc2cc(OCCCF)cc3c2[C@H]1Cc1cccc(O)c1-3` [11c], the inhibitory constant (Ki) in series [8] stood at 1300 ± 200 nM; in series [7] it was 240 ± 33 nM; in [3] (setting [9]) it was 3.2 ± 2.2 nM; in series [4], 400 ± 290 nM. The “Ki D1^high” value in series [1] is reported as “No D1^high”. Besides, in [3], the “D2^high binding affinity (in words)” value is given as “overall improved binding affinity”.

For `CCN1CCc2cc(OCCF)cc3c2[C@H]1Cc1cccc(O)c1-3` [11d, R(−)-2-(2-fluoroethoxy)-11-hydroxy-N-n-ethylnoraporphine], the Ki in [8] (D1 human clone, [3H]SCH23390, read-out: Ki D1^low) was 810 ± 120 nM; in series [7] it was 550 ± 89 nM. In addition, the “Ki D1^high” value in series [1] was “No D1^high”.

As to `CN1CCc2cc(OCCF)cc3c2[C@H]1Cc1cccc(O)c1-3` [11g, R(−)-2-(2-fluoroethoxy)-11-hydroxyaporphine], the results for the Ki in series [5], in [3] (setting [9]) and in series [4] were 0.89 ± 0.13 µM, 1.2 ± 0.4 nM and 480 ± 130 nM, respectively.

Consider `Oc1cccc2c1-c1cccc3c1[C@@H](C2)N(CCCF)CC3` [compound 6, R(−)-11-Hydroxy-N-(3-fluoropropyl)noraporphine], for which, in series [1], the “Ki D1^high” value was “No D1^high”. Moreover, the Ki is greater than 10 µM in series [5] (bound given in μM), greater than 2000 nM in [2] (setting [10]), 6.9 ± 2.1 nM in series [3] (setting [9]) and 860 ± 170 nM in series [4].

For the origin of these results see patent US9517279B2, “2-alkoxy-11-hydroxyaporphine derivatives and uses thereof” (The McLean Hospital Corporation, priority 2010, dated 2016).
